One assay addresses human GlyT1c (Homo sapiens (Human), UniProt P48067). Kind of assay: [3H]-Glycine uptake into recombinant CHO cells expressing human GlyT1. The class given is cell-based. As to conditions: hGlyT1c_5_CHO cells, 200 nM [3H]-glycine. The method in brief:
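hGlyT1c-expressing CHO cells plated at 20,000 cells/well and cultured 24 h; [3H]-glycine incorporation read continuously by solid-phase scintillation for up to 3 h. IC50 from four-parameter logistic fit using the linear uptake phase between 60 and 120 min.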

Another assay has as its target human GlyT1c transporter (Homo sapiens (Human), UniProt P48067). Kind of assay: Radioligand binding assay using recombinant CHO cell membranes expressing human GlyT1. As to conditions: examples 88-204, radioligand not specified by footnote, read-out: radioligand binding Kiapp. The method in brief: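 Competition binding of [^3H]-(R)-NPTS (0.5 nM) to CHO membranes expressing human GlyT1c (50 μg/ml protein) in pH 7.5 Hepes/NaCl buffer with 1% DMSO, 1 h at room temperature. Non-specific binding defined with 10 μM Org24598; filtration and scintillation counting, one-site fit, Ki via Cheng-Prusoff.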

Structures are written as SMILES. Where a name gives a salt, the structure may show the parent alone.

For nine compounds, IC50 and Ki results are on record in patent US8653100B2 (AbbVie Inc., priority 2008, dated 2014).

One may read the IC50 as the concentration at which inhibition is half-maximal.

human GlyT1c transporter, sequence (P48067 whole entry): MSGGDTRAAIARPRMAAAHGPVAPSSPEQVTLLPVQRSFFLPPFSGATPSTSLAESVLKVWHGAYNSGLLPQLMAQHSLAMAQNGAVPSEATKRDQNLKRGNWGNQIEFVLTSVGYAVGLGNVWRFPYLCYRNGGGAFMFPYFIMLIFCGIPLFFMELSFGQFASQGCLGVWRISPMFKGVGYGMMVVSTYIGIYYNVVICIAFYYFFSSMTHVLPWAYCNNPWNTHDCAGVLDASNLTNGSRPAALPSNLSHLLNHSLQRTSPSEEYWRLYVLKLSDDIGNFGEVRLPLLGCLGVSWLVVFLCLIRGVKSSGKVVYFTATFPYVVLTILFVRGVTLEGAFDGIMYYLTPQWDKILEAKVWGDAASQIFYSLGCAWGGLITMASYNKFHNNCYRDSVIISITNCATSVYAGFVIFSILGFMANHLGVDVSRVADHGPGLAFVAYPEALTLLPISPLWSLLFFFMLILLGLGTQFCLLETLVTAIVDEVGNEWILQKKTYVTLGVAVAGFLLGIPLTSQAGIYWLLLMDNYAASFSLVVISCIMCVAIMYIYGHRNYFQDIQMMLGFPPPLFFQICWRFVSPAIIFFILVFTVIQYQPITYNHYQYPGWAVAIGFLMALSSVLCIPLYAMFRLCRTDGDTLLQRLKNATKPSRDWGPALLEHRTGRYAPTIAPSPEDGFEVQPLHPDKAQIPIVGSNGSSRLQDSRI
human GlyT1c, sequence (P48067 whole entry): as above

With `O=S(=O)(NCCOc1ccc2c(c1)[C@@H](C1(c3ccc(Cl)cc3)CCC1)NCC2)c1cccnc1` [Example 182, N-[2-({(1R)-1-[1-(4-Chlorophenyl)cyclobutyl]-1,2,3,4-tetrahydroisoquinolin-7-yl}oxy)ethyl]pyridine-3-sulfonamide hydrochloride], at human GlyT1c (hydrochloride), the IC50 was at most 10 µM. Besides, the Ki on human GlyT1c transporter was at most 10 µM.

For the compound `CCCN1CCN(S(=O)(=O)NCCOc2ccc3c(c2)C(C2(c4ccc(Cl)cc4)CCC2)NCC3)CC1` (stereo not drawn) [Example 183, N-[2-({1-[1-(4-Chlorophenyl)cyclobutyl]-1,2,3,4-tetrahydroisoquinolin-7-yl}oxy)ethyl]-4-propylpiperazine-1-sulfonamide dihydrochloride], on human GlyT1c, the IC50 is at most 10 µM. Further, the Ki on human GlyT1c transporter is at most 10 µM.

`CCCNCCCS(=O)(=O)NCCOc1ccc2c(c1)C(C1(c3ccc(Cl)cc3)CCC1)NCC2` (stereo not drawn) [Example 186, N-[2-({1-[1-(4-Chlorophenyl)cyclobutyl]-1,2,3,4-tetrahydroisoquinolin-7-yl}oxy)ethyl]-3-(propylamino)propane-1-sulfonamide (2E)-but-2-enedioate]: the 50% inhibitory concentration (IC50) at human GlyT1c was at most 10 µM. In addition, the Ki on human GlyT1c transporter was at most 10 µM.

Take `CCNCCCS(=O)(=O)NCCOc1ccc2c(c1)C(C1(c3ccc(Cl)cc3)CCC1)NCC2` (stereo not drawn) [Example 187, N-[2-({1-[1-(4-Chlorophenyl)cyclobutyl]-1,2,3,4-tetrahydroisoquinolin-7-yl}oxy)ethyl]-3-(ethylamino)propane-1-sulfonamide]: on human GlyT1c, the IC50 was at most 10 µM. The Ki at human GlyT1c transporter is at most 10 µM.

As to `CCN(CC)CCCS(=O)(=O)NCCOc1ccc2c(c1)C(C1(c3ccc(Cl)cc3)CCC1)NCC2` (stereo not drawn) [Example 194, N-[2-({1-[1-(4-Chlorophenyl)cyclobutyl]-1,2,3,4-tetrahydroisoquinolin-7-yl}oxy)ethyl]-3-(diethylamino)propane-1-sulfonamide], the IC50 at human GlyT1c is at most 10 µM. In addition, the Ki at human GlyT1c transporter was at most 10 µM.

Consider `CC(C)NCCCS(=O)(=O)NCCOc1ccc2c(c1)C(C1(c3ccc(Cl)cc3)CCC1)NCC2` (stereo not drawn) [Example 197, N-[2-({1-[1-(4-Chlorophenyl)cyclobutyl]-1,2,3,4-tetrahydroisoquinolin-7-yl}oxy)ethyl]-3-(propan-2-ylamino)propane-1-sulfonamide (2E)-but-2-enedioate], for which the IC50 on human GlyT1c is at most 100 µM. Also, the Ki on human GlyT1c transporter is at most 10 µM.

`O=S(=O)(CCCN1CCCCC1)NCCOc1ccc2c(c1)C(C1(c3ccc(Cl)cc3)CCC1)NCC2` (stereo not drawn) [Example 200, N-[2-({1-[1-(4-Chlorophenyl)cyclobutyl]-1,2,3,4-tetrahydroisoquinolin-7-yl}oxy)ethyl]-3-(piperidin-1-yl)propane-1-sulfonamide (2E)-but-2-enedioate]: the half-inhibitory concentration (IC50) on human GlyT1c is at most 10 µM. Moreover, the Ki at human GlyT1c transporter is at most 100 µM.

For the compound `O=S(=O)(CCCN1CCOCC1)NCCOc1ccc2c(c1)C(C1(c3ccc(Cl)cc3)CCC1)NCC2` (stereo not drawn) [Example 201, N-[2-({1-[1-(4-Chlorophenyl)cyclobutyl]-1,2,3,4-tetrahydroisoquinolin-7-yl}oxy)ethyl]-3-(morpholin-4-yl)propane-1-sulfonamide (2E)-but-2-enedioate], on human GlyT1c, the IC50 was at most 100 µM. The Ki at human GlyT1c transporter was at most 100 µM.

Turning to `CCNC(=O)NCCS(=O)(=O)NCCOc1ccc2c(c1)C(C1(c3ccc(Cl)cc3)CCC1)NCC2` (stereo not drawn) [Example 202, N-[2-({1-[1-(4-Chlorophenyl)cyclobutyl]-1,2,3,4-tetrahydroisoquinolin-7-yl}oxy)ethyl]-2-[(ethylcarbamoyl)amino]ethanesulfonamide (2E)-but-2-enedioate], the half-maximal inhibitory concentration (IC50) on human GlyT1c was at most 10 µM. Further, at human GlyT1c transporter, the Ki is at most 100 µM.
